Active and inactive are the calls of the source. The rule behind the calls is not given here.
Columns and labels:
Format in all cases: functional, cell-based
A549 = test: Cytotoxicity against human A549 cells after 48 hrs by SRB assay; details: A549, 48 h
SK-OV-3 = test: Cytotoxicity against human SKOV3 cells after 48 hrs by SRB assay; details: SK-OV-3, 48 h
SK-MEL-2 = test: Cytotoxicity against human SK-MEL-2 cells after 48 hrs by SRB assay; details: SK-MEL-2, 48 h
XF498 = test: Cytotoxicity against human XF498 cells after 48 hrs by SRB assay; details: XF498, 48 h
HCT-15 = test: Cytotoxicity against human HCT15 cells after 48 hrs by SRB assay; details: HCT-15, 48 h
HeLa [1] = test: Cytotoxicity against human HeLa cells after 48 hrs by SRB assay
HeLa [2] = test: Induction of mitochondrial apoptosis in human HeLa cells

Compound	IC50 (A549) [µM]	IC50 (SK-OV-3) [µM]	IC50 (SK-MEL-2) [µM]	IC50 (XF498) [µM]	IC50 (HCT-15) [µM]	IC50 (HeLa [1]) [µM]	inhibition (HeLa [1])	Activity (HeLa [2])
CC1=C(C)[C@H]2[C@H](Cc3ccccc3)NC(=O)[C@]23OC(=O)/C=C/[C@H](O)CCC[C@@H](C)C/C=C/[C@H]3[C@@H]1O	5.99	4.51	5.28	12.3	5.76	–	–	–
C[C@H]1C/C=C/[C@H]2[C@@H]3O[C@]3(C)[C@@H](C)[C@H]3[C@H](Cc4ccccc4)NC(=O)[C@]32OC(=O)/C=C/CCCC1	12.4	4.19	8.35	–	3.91	–	–	–
C=C1[C@@H](C)[C@H]2[C@H](Cc3ccccc3)NC(=O)[C@]23OC(=O)/C=C/[C@H](O)CCC[C@@H](C)C/C=C/[C@H]3[C@@H]1O [CYTOCHALASIN B]	2.13	0.46	0.67	2.36	1.94	7.9	Dose-dependent effect	Active
CC1=C(C)[C@H]2[C@H](Cc3ccccc3)NC(=O)[C@]23C(=O)/C=C/[C@H](O)CCC[C@@H](C)C/C=C/[C@H]3[C@@H]1O [DEOXAPHOMIN B]	23.2	13.9	12.4	–	29.3	–	–	–
CC1=C[C@@H]2/C=C/C[C@H](C)CCC[C@@H](O)/C=C/C(=O)[C@]23C(=O)N[C@@H](Cc2ccccc2)[C@@H]3[C@@H]1C [DEOXAPHOMIN C]	8.58	5.48	6.66	–	8.43	–	–	–
COc1cccc2c1C(=O)c1c(O)c3c(c(O)c1C2=O)C[C@@](O)(C(=O)CO)C[C@@H]3O[C@H]1C[C@H](N)[C@H](O)[C@H](C)O1 [DOXORUBICIN]	–	0.002	0.002	0.015	0.035	–	–	–
